The values that follow come from patent publication US20230373939A1 (VERTEX PHARMACEUTICALS INCORPORATED, priority 2020, published 2023).

The target in one assay is CFTR (Homo sapiens, UniProt P13569). The assay can be described thus: Standard Ussing Chamber Assay for CFTR potentiator activity. It counts as cell-based. Here is the method:
tert-Butyl N-[(6R,12R)-6-benzyloxy-12-methyl-6,15-bis(trifluoromethyl)-13,19-dioxa-3,4,18-triazatricyclo[12.3.1.12,5]nonadeca-1(18),2,4,14,16-pentaen-17-yl]-N-tert-butoxycarbonyl-carbamate (8.6 g, 11.77 mmol) was dissolved in ethanol (172 mL) then the flask was cycled 3 times between vacuum/nitrogen. Treated the mixture with 10% Pd/C (50% water wet, 1.8 g of 5% w/w, 0.8457 mmol) then cycled 3 times between vacuum/nitrogen and 3 times between vacuum/hydrogen and then stirred vigorously under hydrogen (balloon) at room temperature for 18 h. The mixture was cycled 3 times between vacuum/nitrogen, filtered over Celite washing with ethanol and then the filtrate was evaporated to give 7.3 g of tert-butyl N-tert-butoxycarbonyl-N-[(6R,12R)-6-hydroxy-12-methyl-6,15-bis(trifluoromethyl)-13,19-dioxa-3,4,18-triazatricyclo[12.3.1.12,5]nonadeca-1(18),2,4,14,16-pentaen-17-yl]carbamate an off-white solid. 1H NMR and MS confirmed the expected product. CFTR modulatory activity was confirmed using a standard Ussing Chamber Assay for CFTR potentiator activity.

A further assay has as its target T1, F508del in NIH 3T3 cells (Homo sapiens, UniProt P13569, DEL508-508).
T1 construct: expressed in transfected cells
Put plainly: 3T3 assay: membrane potential optical assay for F508del correction. It counts as cell-based. To be noted: for EC50: read-out: 3T3 EC50. In short, it runs like this:
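NIH 3T3 mouse fibroblasts stably expressing F508del were incubated with corrector compounds at a range of concentrations for 16–24 h at 37 °C, then loaded with a voltage-sensing redistribution dye. Channel activity was read as membrane-potential change on FLIPR after a single addition of forskolin with a chloride-free (gluconate) bath creating a Cl⁻ gradient.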

[1] abbreviates: NIH3T3, NIH 3T3 cells, F508del, read-out: 3T3 Max Activity (%).

Structures are written as SMILES. Read-outs that look alike come from different tables or passages of the source. Bounds are passed on as bounds.

As a reminder, the EC50 is the midpoint of the concentration-response curve.

T1 sequence (P13569 with tags, fused parts or gaps DEL508-508): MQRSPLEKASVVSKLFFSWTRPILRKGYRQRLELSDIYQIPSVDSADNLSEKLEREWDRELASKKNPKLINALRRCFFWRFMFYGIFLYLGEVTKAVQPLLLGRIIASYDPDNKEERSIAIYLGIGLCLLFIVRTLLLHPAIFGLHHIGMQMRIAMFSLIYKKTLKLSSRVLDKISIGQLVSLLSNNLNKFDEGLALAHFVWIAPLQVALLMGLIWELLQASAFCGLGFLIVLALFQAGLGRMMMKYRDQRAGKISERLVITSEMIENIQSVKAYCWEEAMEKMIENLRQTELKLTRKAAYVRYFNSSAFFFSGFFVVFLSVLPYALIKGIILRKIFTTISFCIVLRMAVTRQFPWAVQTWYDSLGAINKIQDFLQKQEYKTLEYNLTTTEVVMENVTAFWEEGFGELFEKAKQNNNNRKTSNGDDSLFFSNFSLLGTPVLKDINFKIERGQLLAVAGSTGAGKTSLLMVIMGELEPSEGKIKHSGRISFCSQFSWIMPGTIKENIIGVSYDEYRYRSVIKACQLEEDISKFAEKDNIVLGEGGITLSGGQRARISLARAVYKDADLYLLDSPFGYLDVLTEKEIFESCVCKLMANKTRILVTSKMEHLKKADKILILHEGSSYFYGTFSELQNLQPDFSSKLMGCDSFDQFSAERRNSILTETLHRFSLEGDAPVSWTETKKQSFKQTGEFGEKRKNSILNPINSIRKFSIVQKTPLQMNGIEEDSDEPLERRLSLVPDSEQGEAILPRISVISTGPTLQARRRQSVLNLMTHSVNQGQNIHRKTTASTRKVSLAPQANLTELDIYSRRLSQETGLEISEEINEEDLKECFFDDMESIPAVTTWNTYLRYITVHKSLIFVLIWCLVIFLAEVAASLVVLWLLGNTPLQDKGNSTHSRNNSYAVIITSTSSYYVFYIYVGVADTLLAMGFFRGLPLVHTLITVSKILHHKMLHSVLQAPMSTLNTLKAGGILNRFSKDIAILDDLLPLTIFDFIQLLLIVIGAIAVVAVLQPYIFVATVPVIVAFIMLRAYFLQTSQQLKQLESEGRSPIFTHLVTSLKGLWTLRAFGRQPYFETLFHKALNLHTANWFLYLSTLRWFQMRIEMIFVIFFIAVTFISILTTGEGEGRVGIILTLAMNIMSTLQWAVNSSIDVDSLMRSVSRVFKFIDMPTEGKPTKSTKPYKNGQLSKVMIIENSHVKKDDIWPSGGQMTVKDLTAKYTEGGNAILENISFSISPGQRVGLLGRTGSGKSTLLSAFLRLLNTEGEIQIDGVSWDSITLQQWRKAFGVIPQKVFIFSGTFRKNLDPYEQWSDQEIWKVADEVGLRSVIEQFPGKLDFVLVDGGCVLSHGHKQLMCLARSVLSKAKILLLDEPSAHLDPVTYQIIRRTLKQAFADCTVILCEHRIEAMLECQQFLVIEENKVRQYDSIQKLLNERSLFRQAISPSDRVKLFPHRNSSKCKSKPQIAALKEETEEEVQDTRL
Sequence of CFTR (P13569 whole entry, species assumed): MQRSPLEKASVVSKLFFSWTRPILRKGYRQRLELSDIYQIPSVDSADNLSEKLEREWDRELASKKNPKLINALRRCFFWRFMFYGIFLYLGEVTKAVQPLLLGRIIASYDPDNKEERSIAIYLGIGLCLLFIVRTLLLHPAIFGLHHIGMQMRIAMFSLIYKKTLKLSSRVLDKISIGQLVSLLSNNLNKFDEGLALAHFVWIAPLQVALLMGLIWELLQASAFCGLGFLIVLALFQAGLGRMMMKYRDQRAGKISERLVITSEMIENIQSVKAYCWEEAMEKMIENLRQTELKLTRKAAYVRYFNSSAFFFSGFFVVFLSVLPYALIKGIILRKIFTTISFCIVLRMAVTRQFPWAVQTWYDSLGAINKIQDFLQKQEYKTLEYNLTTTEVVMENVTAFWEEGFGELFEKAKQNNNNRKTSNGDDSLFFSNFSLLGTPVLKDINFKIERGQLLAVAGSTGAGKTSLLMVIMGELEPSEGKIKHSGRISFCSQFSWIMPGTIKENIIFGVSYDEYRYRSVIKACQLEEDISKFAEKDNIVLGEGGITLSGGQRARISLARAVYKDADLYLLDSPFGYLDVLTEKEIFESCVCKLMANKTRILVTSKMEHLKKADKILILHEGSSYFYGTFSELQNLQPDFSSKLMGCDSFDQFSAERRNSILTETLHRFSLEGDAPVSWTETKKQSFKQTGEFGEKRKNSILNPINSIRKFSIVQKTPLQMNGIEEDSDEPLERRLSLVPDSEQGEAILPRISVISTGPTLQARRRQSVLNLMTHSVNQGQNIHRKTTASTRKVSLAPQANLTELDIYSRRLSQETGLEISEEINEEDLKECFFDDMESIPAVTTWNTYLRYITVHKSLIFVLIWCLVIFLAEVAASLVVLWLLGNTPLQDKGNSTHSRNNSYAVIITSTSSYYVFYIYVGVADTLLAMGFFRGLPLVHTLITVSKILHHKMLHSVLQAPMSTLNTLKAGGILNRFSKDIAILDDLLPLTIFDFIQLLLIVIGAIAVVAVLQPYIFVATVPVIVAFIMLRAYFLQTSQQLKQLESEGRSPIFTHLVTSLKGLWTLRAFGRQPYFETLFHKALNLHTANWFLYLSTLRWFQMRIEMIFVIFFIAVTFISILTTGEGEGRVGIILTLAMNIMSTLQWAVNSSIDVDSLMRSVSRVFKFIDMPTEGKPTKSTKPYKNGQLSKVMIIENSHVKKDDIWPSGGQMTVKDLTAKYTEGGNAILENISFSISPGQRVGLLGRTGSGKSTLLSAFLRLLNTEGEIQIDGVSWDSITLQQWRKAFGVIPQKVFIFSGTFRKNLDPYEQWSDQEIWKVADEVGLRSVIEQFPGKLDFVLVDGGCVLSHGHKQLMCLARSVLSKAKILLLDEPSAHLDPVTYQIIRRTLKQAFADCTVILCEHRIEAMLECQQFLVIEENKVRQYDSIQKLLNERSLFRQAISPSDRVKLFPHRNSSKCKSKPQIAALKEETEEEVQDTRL

As for `C[C@@H]1CCCCC[C@](O)(C(F)(F)F)C2=NN=C(O2)c2nc(c(C(F)(F)F)cc2N)O1` [(6R,12R)-17-Amino-12-methyl-6,15-bis(trifluoromethyl)-13,19-dioxa-3,4,18-triazatricyclo[12.3.1.12,5]nonadeca-1(18),2,4,14,16-pentaen-6-ol], the “CFTR modulatory activity (CFTR potentiator activity)” value at CFTR is on record as “confirmed”.
`CCCc1sc(NS(=O)(=O)c2ccccc2)nc1-c1cc(C)ccc1C` [Compound 18, N-[4-(2,5-dimethylphenyl)-5-propyl-thiazol-2-yl]benzenesulfonamide]: on F508del in NIH 3T3 cells (setting [1]), the Emax was greater than 60%. Further, the EC50 at F508del in NIH 3T3 cells (NIH 3T3 cells, F508del) is less than 1 µM.
The corresponding values for `C=C(C)c1cn(-c2cccc(Cl)c2)nc1NS(=O)(=O)c1ccccc1` [Compound 86, N-[1-(3-chlorophenyl)-4-isopropenyl-pyrazol-3-yl]benzenesulfonamide] are 30 to 60% and 3 to 30 µM.
`Cc1cc(NS(=O)(=O)c2ccccc2)nc(-c2ccc(C)cc2C)c1` [Compound 152]: on F508del in NIH 3T3 cells (setting [1]), the Emax was greater than 60%. Moreover, at F508del in NIH 3T3 cells (NIH 3T3 cells, F508del), the EC50 was 3 to 30 µM.
As to `Cc1cc(C)c(-n2nc(NS(=O)(=O)c3ccccc3)cc2-c2ccccc2Oc2ccccc2)c(C)c1` [Compound 55, N-[5-(2-phenoxyphenyl)-1-(2,4,6-trimethylphenyl)pyrazol-3-yl]benzenesulfonamide], on F508del in NIH 3T3 cells (setting [1]), the Emax was greater than 60%. The concentration for a half-maximal effect (EC50) at F508del in NIH 3T3 cells (NIH 3T3 cells, F508del) is less than 1 µM.
On to `Cc1ccc(-c2nc(NS(=O)(=O)c3ccccc3)ccc2C)c(C)c1` [Compound 150], for which, at F508del in NIH 3T3 cells (setting [1]), the Emax was greater than 60%. For the same molecule, the EC50 on F508del in NIH 3T3 cells (NIH 3T3 cells, F508del) lay within 1 to 3 µM.
As for `Cc1cc(C)cc(-c2nc(NS(=O)(=O)c3ccccc3)ccc2C)c1` [Compound 149], the Emax at F508del in NIH 3T3 cells (setting [1]) is greater than 60%. In addition, at F508del in NIH 3T3 cells (NIH 3T3 cells, F508del), the 50% effective concentration (EC50) lay within 3 to 30 µM.
In the same order, the values of `CC(C)Oc1nc(NS(=O)(=O)c2ccccc2)nc(-c2ccccc2)n1` [Compound 124, N-(4-isopropoxy-6-phenyl-1,3,5-triazin-2-yl)benzenesulfonamide] are 30 to 60% and 3 to 30 µM.
For `O=S(=O)(Nc1nc(Oc2ccccc2)nc(-c2ccccc2)n1)c1ccccc1` [Compound 125, N-(4-phenoxy-6-phenyl-1,3,5-triazin-2-yl)benzenesulfonamide], the Emax on F508del in NIH 3T3 cells (setting [1]) lay in the range of 30 to 60%. Also, at F508del in NIH 3T3 cells (NIH 3T3 cells, F508del), the concentration giving a half-maximal response (EC50) is less than 1 µM.
Turning to `CC(C)Cc1cn(-c2cccc(Cl)c2)nc1NS(=O)(=O)c1ccccc1` [Compound 81, N-[1-(3-chlorophenyl)-4-isobutyl-pyrazol-3-yl]benzenesulfonamide], the Emax at F508del in NIH 3T3 cells (setting [1]) was less than 30%.
Same read-out and setting: to `COc1ccc(-c2cn(Cc3ccccc3)nc2NS(=O)(=O)c2ccccc2)cc1` [Compound 111, N-[1-benzyl-4-(4-methoxyphenyl)pyrazol-3-yl]benzenesulfonamide] belongs less than 30%.
In the case of `Cc1cc(C)c(-n2nc(NS(=O)(=O)c3ccccc3)cc2-c2ccccc2C)c(C)c1` [Compound 62], the Emax on F508del in NIH 3T3 cells (setting [1]) is greater than 60%. Moreover, at F508del in NIH 3T3 cells (NIH 3T3 cells, F508del), the EC50 was less than 1 µM.
Turning to `O=S(=O)(Nc1cc(OCc2ccccc2)nc(-c2ccccc2)n1)c1ccccc1` [Compound 132, N-(6-benzyloxy-2-phenyl-pyrimidin-4-yl)benzenesulfonamide], the Emax at F508del in NIH 3T3 cells (setting [1]) is 30 to 60%. The concentration for a half-maximal effect (EC50) on F508del in NIH 3T3 cells (NIH 3T3 cells, F508del) is 1 to 3 µM.
Regarding `Cc1cc(C)c(-n2nc(NS(=O)(=O)c3ccccc3)cc2CC(C)C)c(C)c1` [Compound 52, N-[5-isobutyl-1-(2,4,6-trimethylphenyl)pyrazol-3-yl]benzenesulfonamide], the Emax at F508del in NIH 3T3 cells (setting [1]) was greater than 60%. In addition, on F508del in NIH 3T3 cells (NIH 3T3 cells, F508del), the EC50 is 1 to 3 µM.
For the molecule `CC(C)=Cc1cc(NS(=O)(=O)c2ccccc2)nn1-c1c(C)cc(C)cc1C` [Compound 51, N-[5-(2-methylprop-1-enyl)-1-(2,4,6-trimethylphenyl)pyrazol-3-yl]benzenesulfonamide], the Emax at F508del in NIH 3T3 cells (setting [1]) was greater than 60%. Further, the half-maximal effective concentration (EC50) at F508del in NIH 3T3 cells (NIH 3T3 cells, F508del) fell in the range of 1 to 3 µM.
In the same order, the values of `O=S(=O)(Nc1cc(-c2ccccc2)nc(Oc2ccccc2)n1)c1ccccc1` [Compound 130, N-(2-phenoxy-6-phenylpyrimidin-4-yl)benzenesulfonamide] are 30 to 60% and 1 to 3 µM.
As to `Cc1cc(C)cc(-c2cc(C)cc(NS(=O)(=O)c3ccccc3)n2)c1` [Compound 151], at F508del in NIH 3T3 cells (setting [1]), the Emax lay in the range of 30 to 60%. In addition, the concentration giving a half-maximal response (EC50) on F508del in NIH 3T3 cells (NIH 3T3 cells, F508del) is 3 to 30 µM.
For the molecule `Cc1cc(C)c(-n2nc(NS(=O)(=O)c3ccccc3)cc2-c2ccc(Cl)cc2)c(C)c1` [Compound 56, N-[5-(4-chlorophenyl)-1-(2,4,6-trimethylphenyl)pyrazol-3-yl]benzenesulfonamide], the Emax at F508del in NIH 3T3 cells (setting [1]) fell in the range of 30 to 60%. Besides, the EC50 on F508del in NIH 3T3 cells (NIH 3T3 cells, F508del) is less than 1 µM.
Turning to `CC1CN(c2cc(NS(=O)(=O)c3ccccc3)nc(Oc3ccccc3)n2)C(C)(C)C1` (stereo not shown) [Compound 128, N-[2-phenoxy-6-(2,2,4-trimethylpyrrolidin-1-yl)pyrimidin-4-yl]benzenesulfonamide], at F508del in NIH 3T3 cells (setting [1]), the Emax was 30 to 60%. Also, the EC50 at F508del in NIH 3T3 cells (NIH 3T3 cells, F508del) is less than 1 µM.
Take `O=S(=O)(Nc1nn(-c2ccccc2)cc1C1CCCCC1)c1ccccc1` [Compound 84, N-(4-cyclohexyl-1-phenyl-pyrazol-3-yl)benzenesulfonamide]: the Emax at F508del in NIH 3T3 cells (setting [1]) is less than 30%.
`CCCc1oc(NS(=O)(=O)c2ccccc2)nc1-c1ccccc1` [Compound 2, N-(4-phenyl-5-propyl-oxazol-2-yl)benzenesulfonamide]: the Emax on F508del in NIH 3T3 cells (NIH3T3, read-out: 3T3 Max Activity (%)) was in the range of 30 to 60%. In addition, the EC50 on F508del in NIH 3T3 cells (NIH 3T3 cells, F508del) lay in the range of 3 to 30 µM.
Regarding `Cc1cc(C)c(-n2cc(Br)c(NS(=O)(=O)c3ccccc3)n2)c(C)c1` [Compound 99, N-[4-bromo-1-(2,4,6-trimethylphenyl)pyrazol-3-yl]benzenesulfonamide], at F508del in NIH 3T3 cells (setting [1]), the Emax is less than 30%.
`Nc1cccc(S(=O)(=O)Nc2nc(-c3ccccc3)c(Cc3ccccc3)s2)c1` [Compound 9, 3-amino-N-(5-benzyl-4-phenyl-thiazol-2-yl)benzenesulfonamide]: the Emax on F508del in NIH 3T3 cells (setting [1]) was 30 to 60%. Besides, the 50% effective concentration (EC50) on F508del in NIH 3T3 cells (NIH 3T3 cells, F508del) lay within 1 to 3 µM.
In the case of `O=S(=O)(Nc1ccnn1C1CCCCC1)c1ccccc1` [Compound 79, N-(2-cyclohexylpyrazol-3-yl)benzenesulfonamide], the Emax at F508del in NIH 3T3 cells (setting [1]) is less than 30%.
Turning to `CCOC(=O)c1nc(NS(=O)(=O)c2ccccc2)sc1-c1ccccc1` [Compound 41, ethyl 2-(benzenesulfonamido)-5-phenyl-thiazole-4-carboxylate], the Emax on F508del in NIH 3T3 cells (setting [1]) lay in the range of 30 to 60%. On F508del in NIH 3T3 cells (NIH 3T3 cells, F508del), the EC50 lay in the range of 1 to 3 µM.
Consider `COc1ccccc1-c1cc(NS(=O)(=O)c2ccccc2)nn1-c1c(C)cc(C)cc1C` [Compound 60, N-[5-(2-methoxyphenyl)-1-(2,4,6-trimethylphenyl)pyrazol-3-yl]benzenesulfonamide], for which the Emax at F508del in NIH 3T3 cells (setting [1]) is greater than 60%. Also, the EC50 on F508del in NIH 3T3 cells (NIH 3T3 cells, F508del) lay in the range of 1 to 3 µM.
On to `Cc1nc(NS(=O)(=O)c2ccccc2)sc1C` [Compound 46, N-(4,5-dimethylthiazol-2-yl)benzenesulfonamide], for which the Emax on F508del in NIH 3T3 cells (setting [1]) was less than 30%.
On to `CCCc1nc(NS(=O)(=O)c2ccccc2)sc1C` [Compound 47, N-(5-methyl-4-propyl-thiazol-2-yl)benzenesulfonamide], for which, at F508del in NIH 3T3 cells (setting [1]), the Emax was less than 30%.
As to `O=S(=O)(Nc1ccnn1CC1CC1)c1ccccc1` [Compound 78, N-[2-(cyclopropylmethyl)pyrazol-3-yl]benzenesulfonamide], the Emax on F508del in NIH 3T3 cells (setting [1]) is less than 30%.
Consider `O=S(=O)(Nc1cc(Oc2ccccc2)cc(-c2ccccc2)n1)c1ccccc1` [Compound 136, N-(4-phenoxy-6-phenyl-2-pyridyl)benzenesulfonamide], for which the Emax on F508del in NIH 3T3 cells (setting [1]) is greater than 60%. Also, the EC50 at F508del in NIH 3T3 cells (NIH 3T3 cells, F508del) fell in the range of 1 to 3 µM.
For `O=S(=O)(Nc1nn(-c2ccccc2)cc1-c1cccs1)c1ccccc1` [Compound 75, N-[1-phenyl-4-(2-thienyl)pyrazol-3-yl]benzenesulfonamide], the Emax on F508del in NIH 3T3 cells (setting [1]) is less than 30%.
